Measurements published in paper PMC3905854 (Nucleic Acids Research, 2013).
pKd: −log10 of the molar value.

Columns and labels:
DnaA (wtDnaA) = molecular target: T1, DnaA (wtDnaA) (Escherichia coli, UniProt P03004, H202Y); assay: ATP binding assay
T1 sequence (P03004 1-467 H202Y): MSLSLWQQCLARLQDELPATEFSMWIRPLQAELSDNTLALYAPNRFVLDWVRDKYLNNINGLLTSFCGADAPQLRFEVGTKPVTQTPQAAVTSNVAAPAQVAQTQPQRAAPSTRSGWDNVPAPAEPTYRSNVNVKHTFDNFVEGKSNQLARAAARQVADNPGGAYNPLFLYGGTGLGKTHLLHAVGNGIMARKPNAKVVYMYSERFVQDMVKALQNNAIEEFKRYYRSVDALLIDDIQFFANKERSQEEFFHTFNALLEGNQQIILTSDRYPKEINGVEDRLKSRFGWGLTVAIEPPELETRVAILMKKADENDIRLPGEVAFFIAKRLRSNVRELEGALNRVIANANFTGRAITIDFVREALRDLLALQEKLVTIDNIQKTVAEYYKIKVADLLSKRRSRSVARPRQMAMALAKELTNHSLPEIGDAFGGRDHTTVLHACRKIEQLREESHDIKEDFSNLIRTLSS

Hda (E. coli) = Hda (E. coli) (UniProt P69931); assay: SEC

pKd (DnaA (wtDnaA)) | stoichiometry N (Hda (E. coli)) | Molecule
6.44 |  | Nc1ncnc2c1ncn2[C@@H]1O[C@H](COP(=O)(O)OP(=O)(O)OP(=O)(O)O)[C@@H](O)[C@H]1O [ATP]
 | 2 | Hda (from UniProt P69931 1-233) (natural protein)
